Data from patent publication US5436254A, “Carbostyril derivatives” (Otsuka Pharmaceutical Company, Ltd., priority 1989, dated 1995).
Read-outs that look alike come from different tables or passages of the source.

Biological target: V1 receptor (Rattus norvegicus, UniProt P30560)
Assay: biochemical
Type: binding
[1] = [H]3-Arg-vasopressin 2×10^-10 M, rat liver plasma membrane, 37° C., 10 minutes, pH 8.0

V1 receptor, sequence (P30560 whole entry): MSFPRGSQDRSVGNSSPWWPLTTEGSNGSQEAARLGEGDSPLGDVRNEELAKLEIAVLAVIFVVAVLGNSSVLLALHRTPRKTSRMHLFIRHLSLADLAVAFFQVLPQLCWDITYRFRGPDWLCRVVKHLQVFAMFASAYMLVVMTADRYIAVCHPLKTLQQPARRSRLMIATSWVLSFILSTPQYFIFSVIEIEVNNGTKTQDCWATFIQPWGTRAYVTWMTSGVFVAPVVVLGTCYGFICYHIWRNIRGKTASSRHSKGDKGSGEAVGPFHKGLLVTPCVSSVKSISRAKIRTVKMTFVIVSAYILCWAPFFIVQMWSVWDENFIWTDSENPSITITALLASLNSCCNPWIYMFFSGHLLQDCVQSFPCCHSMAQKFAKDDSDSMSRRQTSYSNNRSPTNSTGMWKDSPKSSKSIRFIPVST

Row | Structure (SMILES) | IC50 | IC50 [1]
1 | O=C(NCCCOc1ccc(C(=O)N2CCC(N3C(=O)CCc4ccccc43)CC2)cc1)[C@@H]1CCCN1 [Example 224, 1-{1-[4-(3-(S)-Prolylaminopropoxy)benzoyl]-4-piperidinyl]-3,4-dihydrocarbostyril] | 94 nM | –
2 | CC(C)[C@@H](N)C(=O)NCCCOc1ccc(C(=O)N2CCC(N3C(=O)CCc4ccccc43)CC2)cc1 [Example 225, 1-[1-{4-(3-(R)-Valylaminopropoxy]benzoyl]-4-piperidinyl]-3,4-dihydrocarbostyril] | 99 nM | –
3 | O=C(N[C@@H](CO)C(=O)NCCCOc1ccc(C(=O)N2CCC(N3C(=O)CCc4ccccc43)CC2)cc1)OCc1ccccc1 [Example 226, 1-[1-{4-(3-(S)-{N-(Benzyloxycarbonyl)seryl}aminopropoxy]benzoyl)-4-piperidinyl]-3,4-dihydrocarbostyril] | 480 nM | –
4 | C=CCN1CCN(CCCCOc2ccc(C(=O)N3CCC(N4C(=O)CCc5ccccc54)CC3)cc2)CC1 [Example 227, 1-{1-(4-[4-(4-Allyl-1-piperazinyl)butoxy]benzoyl)-4-piperidinyl)-3,4-dihydrocarbostyril] | 130 nM | –
5 | O=C(CCl)NCCCCOc1ccc(C(=O)N2CCC(N3C(=O)CCc4ccccc43)CC2)cc1 [Example 228, 1-{1-(4-[4-(2-Chloroacetylamino)butoxy]benzoyl)-4-piperidinyl)-3,4-dihydrocarbostyril] | 200 nM | –
6 | CC(=O)OCC(=O)NCCCCCOc1ccc(C(=O)N2CCC(N3C(=O)CCc4ccccc43)CC2)cc1 [Example 229, 1-{1-(4-[5-(2-Acetoxyacetylamino)pentyloxy]benzoyl)-4-piperidinyl]-3,4-dihydrocarbostyril] | 200 nM | –
7 | O=C(CO)NCCCCCOc1ccc(C(=O)N2CCC(N3C(=O)CCc4ccccc43)CC2)cc1 [Example 230, 1-[1-(4-[5-(2-Hydroxyacetylamino)pentyloxy]benzoyl)-4-piperidinyl)-3,4-dihydrocarbostyril] | 180 nM | –
8 | O=C(NCCCCOc1ccc(C(=O)N2CCC(N3C(=O)CCc4ccccc43)CC2)cc1)C1CCNCC1 [Example 231, 1-[1-(4-[4-(4-Piperidinylcarbonylamino)butoxy]benzoyl)-4-piperidinyl)-3,4-dihydrocarbostyril] | 41 nM | –
9 | CC(=O)N1CCC(C(=O)NCCCCOc2ccc(C(=O)N3CCC(N4C(=O)CCc5ccccc54)CC3)cc2)CC1 [Example 232, 1-{1-(4-[4-(1-Acetyl-4-piperidinylcarbonylamino)butoxy]benzoyl)-4-piperidinyl)-3,4-dihydrocarbostyril] | 120 nM | –
10 | O=C(c1ccc(OCCCCCN2CCN(c3ncccn3)CC2)cc1)N1CCC(N2C(=O)CCc3ccccc32)CC1 [Example 233, 1-{1-(4-[5-(4-[2-Pyrimidyl]-1-piperazinyl)pentyloxy]benzoyl)-4-piperidinyl}-3,4-dihydrocarbostyril] | 210 nM | –
11 | O=C(c1ccc(OCCCCCN2CCN(c3ccccn3)CC2)cc1)N1CCC(N2C(=O)CCc3ccccc32)CC1 [Example 234, 1-{1-(4-[5-(4-[2-Pyridyl]-1-piperazinyl)pentyloxy]benzoyl)-4-piperidinyl}-3,4-dihydrocarbostyril] | 180 nM | –
12 | CC[N+](CC)(CC)CCCCCOc1ccc(C(=O)N2CCC(N3C(=O)CCc4ccccc43)CC2)cc1 [Example 235, 1-{1-[4-(5-Triethylammouniumpentyloxy)benzoyl]-4-piperidinyl)-3,4-dihydrocarbostyril bromide] | 66 nM | –
13 | O=C(c1ccc(OCCCCCn2ccnc2)cc1)N1CCC(N2C(=O)CCc3ccccc32)CC1 [Example 236] | – | 260 nM
14 | O=C(c1ccc(OCCCCCn2cncn2)cc1)N1CCC(N2C(=O)CCc3ccccc32)CC1 [Example 237] | – | 75 nM
15 | O=C(c1ccc(OCCCCCN2CCC[C@H]2CO)cc1)N1CCC(N2C(=O)CCc3ccccc32)CC1 [Example 238, 1-(1-(4-[5-(2-(S)-Hydroxymethyl-1-pyrrolidinyl)pentyloxy]benzoyl)-4-piperidinyl}-3,4-dihydrocarbostyril] | 33 nM | –
16 | COC(=O)[C@@H]1CCCN1CCCCCOc1ccc(C(=O)N2CCC(N3C(=O)CCc4ccccc43)CC2)cc1 [Example 239, 1-{1-(4-[5-(2-(S)-Methoxycarbonyl-1-pyrrolidinyl)pentyloxy]benzoyl)-4-piperidinyl}-3,4-dihydrocarbostyril] | 150 nM | –
17 | O=C(c1ccc(OCCCCCN2CCCC(O)C2)cc1)N1CCC(N2C(=O)CCc3ccccc32)CC1 (stereo not drawn) [Example 240, 1-{1-(4-[5-(3-Hydroxy-1-piperidinyl)pentyloxy]benzoyl)-4-piperidinyl}-3,4-dihydrocarbostyril] | 48 nM | –
18 | O=C(c1ccc(OCCCCCN2CCCCC2CO)cc1)N1CCC(N2C(=O)CCc3ccccc32)CC1 (stereo not drawn) [Example 241, 1-{1-(4-[5-(2-Hydroxymethyl-1-piperidinyl)pentyloxy]benzoyl)-4-piperidinyl}-3,4-dihydrocarbostyril] | 21 nM | –
19 | CC1CCN(CCCCCOc2ccc(C(=O)N3CCC(N4C(=O)CCc5ccccc54)CC3)cc2)CC1 [Example 242, 1-{1-(4-[5-(4-Methyl-1-piperidinyl)pentyloxy]benzoyl)-4-piperidinyl}-3,4-dihydrocarbostyril] | 59 nM | –
20 | O=C(c1ccc(OCCCCCCN2CCCCC2)cc1)N1CCC(N2C(=O)CCc3ccccc32)CC1 [Example 243, 1-{1-(4-[6-(1-Piperidinyl)hexyloxy]benzoyl)-4-piperidinyl}-3,4-dihydrocarbostyril] | 39 nM | –
21 | CN(CCO)CCCCCOc1ccc(C(=O)N2CCC(N3C(=O)CCc4ccccc43)CC2)cc1 [Example 244, 1-{1-(4-[5-(N-(2-Hydroxyethyl)-N-methylamino)pentyloxy]benzoyl)-4-piperidinyl}-3,4-dihydrocarbostyril] | 34 nM | –
22 | C=CCN(C)CCCCCOc1ccc(C(=O)N2CCC(N3C(=O)CCc4ccccc43)CC2)cc1 [Example 245, 1-{1-(4-[5-(N-Allyl-N-methylamino)pentyloxy]benzoyl)-4-piperidinyl}-3,4-dihydrocarbostyril] | 54 nM | –
23 | C=CC[N+](C)([O-])CCCCCOc1ccc(C(=O)N2CCC(N3C(=O)CCc4ccccc43)CC2)cc1 (stereo not drawn) [Example 246, N-{5-[4-(4-(3,4-Dihydrocarbostyril-1-yl)-1-piperidinylcarbonyl)phenoxy]pentyl}, N-methyl, N-allylamine oxide] | 290 nM | –
24 | CN(CCC#N)CCCCCOc1ccc(C(=O)N2CCC(N3C(=O)CCc4ccccc43)CC2)cc1 [Example 247, 1-{1-(4-[5-(N-(2-Cyanoethyl)-N-methylamino)pentyloxy]benzoyl)-4-piperidinyl}-3,4-dihydrocarbostyril] | 170 nM | –
25 | CN(C)CCN(CCCCCOc1ccc(C(=O)N2CCC(N3C(=O)CCc4ccccc43)CC2)cc1)Cc1ccccc1 [Example 248, 1-{1-(4-[5-(N-(2-Dimethylaminoethyl)-N-benzylamino)pentyloxy]benzoyl)-4-piperidinyl}-3,4-dihydrocarbostyril] | 34 nM | –
26 | CC(=O)OCCN(CCCCCOc1ccc(C(=O)N2CCC(N3C(=O)CCc4ccccc43)CC2)cc1)CCOC(C)=O [Example 249, 1-{1-(4-[5-(N,N-Di(2-acetoxyethyl)amino)pentyloxy]benzoyl)-4-piperidinyl}-3,4-dihydrocarbostyril] | 45 nM | –
27 | O=C(CCCNC(=O)OCc1ccccc1)NCCCCCOc1ccc(C(=O)N2CCC(N3C(=O)CCc4ccccc43)CC2)cc1 [Example 250, 1-{1-(4-[5-(4-Benzyloxycarbonylaminobutyrylamino)pentyloxy]benzoyl)-4-piperidinyl}-3,4-dihydrocarbostyril] | 320 nM | –
